Laboratory results as given in PubChem BioAssay (NCI).
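Grown in 96-well plates, cells were treated for 48 hours with each compound at five concentrations. Insufficient inhibition: endpoint recorded as highest concentration tested. Here, GI50 denotes the concentration required for 50% inhibition of growth. TGI: total growth inhibition.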

How the values were obtained:
Experiment in all cases: inhibition of tumour cell growth, NCI panel, 48 h
[1] = tested on: HCC-2998 colon
[2] = tested on: HOP-92 NSCLC
[3] = tested on: NCI-H23 lung
[4] = tested on: HCT-116 colon
[5] = tested on: UACC-257 melanoma
[6] = tested on: BT-549 breast
[7] = tested on: NCI-H460 lung
[8] = tested on: HOP-62 NSCLC
[9] = tested on: ACHN renal
[10] = tested on: SK-MEL-2 melanoma
[11] = tested on: KM12 colon
[12] = tested on: CAKI-1 renal
[13] = tested on: SF-268 CNS
[14] = tested on: SF-539 CNS
[15] = tested on: SK-MEL-5 melanoma
[16] = tested on: OVCAR-4 ovarian
[17] = tested on: OVCAR-8 ovarian
[18] = tested on: RXF 393 renal
[19] = tested on: HL-60(TB) leukemia
[20] = tested on: SR leukemia
[21] = tested on: COLO 205 colon
[22] = tested on: MCF7 breast
[23] = tested on: K-562 leukemia
[24] = tested on: A549 NSCLC
[25] = tested on: SF-295 CNS
[26] = tested on: HCT-15 colon
[27] = tested on: DU-145 prostate
[28] = tested on: UO-31 renal
[29] = tested on: TK-10 renal
[30] = tested on: MALME-3M melanoma
[31] = tested on: SNB-19 CNS
[32] = tested on: U251 CNS
[33] = tested on: RPMI-8226 leukemia
[34] = tested on: SK-MEL-28 melanoma
[35] = tested on: UACC-62 melanoma
[36] = tested on: HT29 colon
[37] = tested on: PC-3 prostate
[38] = tested on: 786-0 renal
[39] = tested on: IGROV1 ovarian
[40] = tested on: LOX IMVI melanoma
[41] = tested on: SNB-75 CNS
[42] = tested on: OVCAR-3 ovarian
[43] = tested on: NCI-H522 lung
[44] = tested on: MDA-MB-231 breast
[45] = tested on: MOLT-4 leukemia
[46] = tested on: HS 578T breast
[47] = tested on: OVCAR-5 ovarian
[48] = tested on: SW-620 colon
[49] = tested on: T-47D breast
[50] = tested on: SN12C renal
[51] = tested on: M14 melanoma
[52] = tested on: CCRF-CEM leukemia
[53] = tested on: A498 renal
[54] = tested on: EKVX NSCLC
[55] = tested on: SK-OV-3 ovarian
[56] = tested on: NCI/ADR-RES ovarian
[57] = tested on: NCI-H226 lung
[58] = tested on: MDA-MB-435

Structure (SMILES): Cc1ccc(-c2nc(/C=N/Nc3cc(C)nc4ccc(Br)cc34)c(C)o2)cc1
- GI50 [1]: 1740 nM
- TGI [1]: 3.28 µM
- GI50 [2]: 1500 nM
- TGI [2]: 2980 nM
- GI50 [3]: 2090 nM
- TGI [3]: 4.75 µM
- GI50 [4]: 1850 nM
- TGI [4]: 3.46 µM
- GI50 [5]: 2130 nM
- TGI [5]: 5.02 µM
- GI50 [6]: 14 µM
- TGI [6]: 29.3 µM
- GI50 [7]: 1940 nM
- TGI [7]: 3.73 µM
- GI50 [8]: 1870 nM
- TGI [8]: 3.55 µM
- GI50 [9]: 1800 nM
- TGI [9]: 3.21 µM
- GI50 [10]: 19.7 µM
- TGI [10]: 41.2 µM
- GI50 [11]: 1890 nM
- TGI [11]: 3.6 µM
- GI50 [12]: 1730 nM
- TGI [12]: 3.12 µM
- GI50 [13]: 2090 nM
- TGI [13]: 4.22 µM
- GI50 [14]: 1720 nM
- TGI [14]: 3.18 µM
- GI50 [15]: 3.7 µM
- TGI [15]: 13.6 µM
- GI50 [16]: 1890 nM
- TGI [16]: 3.49 µM
- GI50 [17]: 2080 nM
- TGI [17]: 4.4 µM
- GI50 [18]: 1650 nM
- TGI [18]: 3.22 µM
- GI50 [19]: 1900 nM
- TGI [19]: 4.05 µM
- GI50 [20]: 2670 nM
- TGI [20]: 7.71 µM
- GI50 [21]: 2030 nM
- TGI [21]: 3.97 µM
- GI50 [22]: 1920 nM
- TGI [22]: 3.99 µM
- GI50 [23]: 1930 nM
- TGI [23]: 4.58 µM
- GI50 [24]: 1820 nM
- TGI [24]: 3.52 µM
- GI50 [25]: 2860 nM
- TGI [25]: 8.8 µM
- GI50 [26]: 1860 nM
- TGI [26]: 3.64 µM
- GI50 [27]: 1800 nM
- TGI [27]: 3.36 µM
- GI50 [28]: 1650 nM
- TGI [28]: 3.08 µM
- GI50 [29]: 1820 nM
- TGI [29]: 3.29 µM
- GI50 [30]: 2050 nM
- TGI [30]: 3.62 µM
- GI50 [31]: 1860 nM
- TGI [31]: 3.48 µM
- GI50 [32]: 1840 nM
- TGI [32]: 3.45 µM
- GI50 [33]: 2050 nM
- TGI [33]: 4.71 µM
- GI50 [34]: 1730 nM
- TGI [34]: 3.25 µM
- GI50 [35]: 1730 nM
- TGI [35]: 3.36 µM
- GI50 [36]: 1920 nM
- TGI [36]: 3.82 µM
- GI50 [37]: 1710 nM
- TGI [37]: 3.3 µM
- GI50 [38]: 1860 nM
- TGI [38]: 3.67 µM
- GI50 [39]: 1840 nM
- TGI [39]: 3.52 µM
- GI50 [40]: 1880 nM
- TGI [40]: 3.57 µM
- GI50 [41]: 1740 nM
- TGI [41]: 3.39 µM
- GI50 [42]: 1880 nM
- TGI [42]: 3.36 µM
- GI50 [43]: 1940 nM
- TGI [43]: 4.13 µM
- GI50 [44]: 1980 nM
- TGI [44]: 3.77 µM
- GI50 [45]: 2320 nM
- TGI [45]: 5.13 µM
- GI50 [46]: 17 µM
- TGI [46]: 38.6 µM
- GI50 [47]: 1860 nM
- TGI [47]: 3.36 µM
- GI50 [48]: 1920 nM
- TGI [48]: 3.68 µM
- GI50 [49]: 1940 nM
- TGI [49]: 3.94 µM
- GI50 [50]: 1880 nM
- TGI [50]: 3.69 µM
- GI50 [51]: 1890 nM
- TGI [51]: 3.63 µM
- GI50 [52]: 2170 nM
- TGI [52]: 5.51 µM
- GI50 [53]: 3.73 µM
- TGI [53]: 20.4 µM
- GI50 [54]: 9.51 µM
- TGI [54]: 21.4 µM
- GI50 [55]: 1800 nM
- TGI [55]: 3.29 µM
- GI50 [56]: 1990 nM
- TGI [56]: 4.46 µM
- GI50 [57]: 15 µM
- TGI [57]: 42.1 µM
- GI50 [58]: 1720 nM
- TGI [58]: 3.12 µM

Structure (SMILES): Fc1ccc(-c2ncn(CCCN3CCOCC3)c2-c2ccncc2)cc1
- GI50 [1]: > 25000 nM
- TGI [1]: > 25 µM
- GI50 [2]: > 25000 nM
- TGI [2]: > 25000 nM
- GI50 [3]: > 25000 nM
- TGI [3]: > 25 µM
- GI50 [4]: > 25000 nM
- TGI [4]: > 25 µM
- GI50 [5]: > 25000 nM
- TGI [5]: > 25 µM
- GI50 [6]: > 25 µM
- TGI [6]: > 25 µM
- GI50 [7]: > 25000 nM
- TGI [7]: > 25 µM
- GI50 [8]: > 25000 nM
- TGI [8]: > 25 µM
- GI50 [9]: > 25000 nM
- TGI [9]: > 25 µM
- GI50 [10]: > 25 µM
- TGI [10]: > 25 µM
- GI50 [11]: > 25000 nM
- TGI [11]: > 25 µM
- GI50 [12]: > 25000 nM
- TGI [12]: > 25 µM
- GI50 [13]: > 25000 nM
- TGI [13]: > 25 µM
- GI50 [14]: > 25000 nM
- TGI [14]: > 25 µM
- GI50 [15]: > 25 µM
- TGI [15]: > 25 µM
- GI50 [16]: > 25000 nM
- TGI [16]: > 25 µM
- GI50 [17]: > 25000 nM
- TGI [17]: > 25 µM
- GI50 [18]: > 25000 nM
- TGI [18]: > 25 µM
- GI50 [19]: > 25000 nM
- TGI [19]: > 25 µM
- GI50 [20]: > 25000 nM
- TGI [20]: > 25 µM
- GI50 [21]: > 25000 nM
- TGI [21]: > 25 µM
- GI50 [22]: > 25000 nM
- TGI [22]: > 25 µM
- GI50 [23]: > 25000 nM
- TGI [23]: > 25 µM
- GI50 [24]: > 25000 nM
- TGI [24]: > 25 µM
- GI50 [25]: > 25000 nM
- TGI [25]: > 25 µM
- GI50 [26]: > 25000 nM
- TGI [26]: > 25 µM
- GI50 [27]: > 25000 nM
- TGI [27]: > 25 µM
- GI50 [28]: > 25000 nM
- TGI [28]: > 25 µM
- GI50 [29]: > 25000 nM
- TGI [29]: > 25 µM
- GI50 [30]: > 25000 nM
- TGI [30]: > 25 µM
- GI50 [31]: > 25000 nM
- TGI [31]: > 25 µM
- GI50 [32]: > 25000 nM
- TGI [32]: > 25 µM
- GI50 [33]: > 25000 nM
- TGI [33]: > 25 µM
- GI50 [34]: > 25000 nM
- TGI [34]: > 25 µM
- GI50 [35]: > 25000 nM
- TGI [35]: > 25 µM
- GI50 [36]: > 25000 nM
- TGI [36]: > 25 µM
- GI50 [37]: > 25000 nM
- TGI [37]: > 25 µM
- GI50 [38]: > 25000 nM
- TGI [38]: > 25 µM
- GI50 [39]: > 25000 nM
- TGI [39]: > 25 µM
- GI50 [40]: > 25000 nM
- TGI [40]: > 25 µM
- GI50 [41]: > 25000 nM
- TGI [41]: > 25 µM
- GI50 [42]: > 25000 nM
- TGI [42]: > 25 µM
- GI50 [43]: > 25000 nM
- TGI [43]: > 25 µM
- GI50 [44]: > 25000 nM
- TGI [44]: > 25 µM
- GI50 [45]: > 25000 nM
- TGI [45]: > 25 µM
- GI50 [46]: > 25 µM
- TGI [46]: > 25 µM
- GI50 [47]: > 25000 nM
- TGI [47]: > 25 µM
- GI50 [48]: > 25000 nM
- TGI [48]: > 25 µM
- GI50 [49]: > 25000 nM
- TGI [49]: > 25 µM
- GI50 [50]: > 25000 nM
- TGI [50]: > 25 µM
- GI50 [51]: > 25000 nM
- TGI [51]: > 25 µM
- GI50 [52]: > 25000 nM
- TGI [52]: > 25 µM
- GI50 [53]: > 25 µM
- TGI [53]: > 25 µM
- GI50 [54]: > 25 µM
- TGI [54]: > 25 µM
- GI50 [55]: > 25000 nM
- TGI [55]: > 25 µM
- GI50 [56]: > 25000 nM
- TGI [56]: > 25 µM
- GI50 [57]: > 25 µM
- TGI [57]: > 25 µM
- GI50 [58]: > 25000 nM
- TGI [58]: > 25 µM
